Measured values as given in ChEMBL document CHEMBL1201862, “PubChem BioAssay data set” (2004).
Several values for one entry are separate records, joined by “and”; a condition that tells them apart may be missing. Equal values may be shown once.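 All cell lines were grown in 96-well plates and treated with compound for 48 hours. At the GI50, growth is halved.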 Activity calls are given as the source filed them. Rule as the data show it: active = GI50 up to about 1.1 µM and inactive = higher.

Tests used:
Assay in all cases: NCI tumour cell line growth inhibition, 48 h
A549 = system: A549
CAKI-1 = system: CAKI-1
CCRF-CEM = system: CCRF-CEM
DU-145 = system: DU-145
Hs-578T = system: Hs-578T
IGROV-1 = system: IGROV-1
MDA-N = system: MDA-N
MOLT-4 = system: MOLT-4
NCI-H226 = system: NCI-H226
SK-MEL-28 = system: SK-MEL-28
SK-MEL-5 = system: SK-MEL-5
T47D = system: T47D
UACC-257 = system: UACC-257
ACHN = system: ACHN
NCI-H460 = system: NCI-H460
NCI-H522 = system: NCI-H522
OVCAR-4 = system: OVCAR-4
SF-295 = system: SF-295
SNB-19 = system: SNB-19
UACC-62 = system: UACC-62

Compound	GI50 (A549)	GI50 (CAKI-1)	GI50 (CCRF-CEM)	GI50 (DU-145)	GI50 (Hs-578T)	GI50 (IGROV-1)	GI50 (MDA-N)	GI50 (MOLT-4)	GI50 (NCI-H226)	GI50 (SK-MEL-28)	GI50 (SK-MEL-5)	GI50 (T47D)	GI50 (UACC-257)	GI50 (ACHN)	GI50 (NCI-H460)	GI50 (NCI-H522)	GI50 (OVCAR-4)	GI50 (SF-295)	GI50 (SNB-19)	GI50 (UACC-62)
COc1ccc(-c2nc(SC)n(C3OC(COC(C)=O)C(OC(C)=O)C(OC(C)=O)C3OC(C)=O)c(=O)c2C#N)cc1 (stereo not drawn)	59 µM (inactive)	> 100 µM (inactive)	> 100 µM (inactive)	> 100 µM (inactive)	34.9 µM (inactive)	> 100 µM (inactive)	> 100 µM (inactive)	68.4 µM (inactive)	> 100 µM (inactive)	> 100 µM (inactive) and 72.1 µM (inactive)	> 100 µM (inactive)	95.7 µM (inactive)	> 100 µM (inactive)	–	–	–	–	–	–	–
CCCCC(=O)Nc1ccc2cc(C(=O)OC)c(=O)[nH]c2n1	> 100 µM (inactive)	> 100 µM (inactive)	59.4 µM (inactive)	–	–	> 100 µM (inactive)	> 100 µM (inactive)	> 100 µM (inactive)	> 100 µM (inactive)	> 100 µM (inactive)	> 100 µM (inactive)	> 100 µM (inactive)	> 100 µM (inactive)	> 100 µM (inactive)	> 100 µM (inactive)	> 100 µM (inactive)	> 100 µM (inactive)	> 100 µM (inactive)	> 100 µM (inactive)	–
CNCCN[C@@H]1c2cc3c(cc2[C@@H](c2cc(OC)c(O)c(OC)c2)[C@H]2C(=O)OC[C@@H]21)OCO3	0.0708 µM (active)	0.264 µM (active)	0.0138 µM (active)	0.27 µM (active)	–	0.418 µM (active)	1.04 µM (active)	0.0104 µM (active)	0.0946 µM (active)	0.665 µM (active)	0.148 µM (active)	0.138 µM (active)	0.652 µM (active)	0.106 µM (active)	< 0.01 µM (active)	0.251 µM (active)	5.3 µM (inactive)	0.0973 µM (active)	0.291 µM (active)	0.132 µM (active)
COc1cc(OC)c(NC2=NCCO2)cc1Cl	46.3 µM (inactive)	–	54 µM (inactive)	38.2 µM (inactive)	61.7 µM (inactive)	38 µM (inactive)	17.1 µM (inactive)	44.2 µM (inactive)	25.7 µM (inactive)	44 µM (inactive)	23.1 µM (inactive)	54.5 µM (inactive)	31 µM (inactive)	64.7 µM (inactive)	21.2 µM (inactive)	32.8 µM (inactive)	> 100 µM (inactive)	82.8 µM (inactive)	> 100 µM (inactive)	60.7 µM (inactive)
CC1=NN(C(=O)CC(=O)Nc2cccc(C)c2)C(=O)C1/N=N/c1ccc(C(=O)O)cc1 (stereo not drawn)	> 100 µM (inactive)	> 100 µM (inactive)	> 100 µM (inactive)	> 100 µM (inactive)	> 100 µM (inactive)	> 100 µM (inactive)	> 100 µM (inactive)	–	–	> 100 µM (inactive)	> 100 µM (inactive)	> 100 µM (inactive)	> 100 µM (inactive)	> 100 µM (inactive)	–	> 100 µM (inactive)	> 100 µM (inactive)	> 100 µM (inactive)	> 100 µM (inactive)	> 100 µM (inactive)
N=C(N)N/N=C/c1nc2n(c1[N+](=O)[O-])CCS2	26.8 µM (inactive)	> 100 µM (inactive)	–	27.3 µM (inactive)	30.3 µM (inactive)	50.2 µM (inactive)	32.1 µM (inactive)	22.2 µM (inactive)	35.8 µM (inactive)	43.7 µM (inactive)	18.5 µM (inactive)	17.3 µM (inactive)	17.1 µM (inactive)	> 100 µM (inactive)	18.1 µM (inactive)	12.9 µM (inactive)	16.2 µM (inactive)	26.4 µM (inactive)	27.5 µM (inactive)	42.8 µM (inactive)
O=C(/C=C/c1ccc(OCc2ccccc2)c(OCc2ccccc2)c1)OCc1ccccc1	> 100 µM (inactive)	> 100 µM (inactive)	–	> 100 µM (inactive)	–	> 100 µM (inactive)	> 100 µM (inactive)	> 100 µM (inactive)	> 100 µM (inactive)	> 100 µM (inactive)	> 100 µM (inactive)	> 100 µM (inactive)	> 100 µM (inactive)	> 100 µM (inactive)	> 100 µM (inactive)	> 100 µM (inactive)	> 100 µM (inactive)	> 100 µM (inactive)	> 100 µM (inactive)	> 100 µM (inactive)
CC1(C)OC2C(CO)OC(n3ccc(N)nc3=O)C2O1 (stereo not drawn)	> 100 µM (inactive)	> 100 µM (inactive)	> 100 µM (inactive)	> 100 µM (inactive)	> 100 µM (inactive)	> 100 µM (inactive)	> 100 µM (inactive)	> 100 µM (inactive)	> 100 µM (inactive)	> 100 µM (inactive)	> 100 µM (inactive)	> 100 µM (inactive)	> 100 µM (inactive)	> 100 µM (inactive)	> 100 µM (inactive)	> 100 µM (inactive)	–	> 100 µM (inactive)	> 100 µM (inactive)	> 100 µM (inactive)
CCOC(=O)C1=CC(C)(C(=O)OCC)Nc2c(nc(SC)n(C)c2=O)N1 (stereo not drawn)	> 10 µM (inactive)	> 10 µM (inactive)	> 10 µM (inactive)	> 10 µM (inactive)	–	> 10 µM (inactive)	> 10 µM (inactive)	> 10 µM (inactive)	> 10 µM (inactive)	> 10 µM (inactive)	> 10 µM (inactive)	> 10 µM (inactive)	> 10 µM (inactive)	> 10 µM (inactive)	> 10 µM (inactive)	> 10 µM (inactive)	> 10 µM (inactive)	> 10 µM (inactive)	> 10 µM (inactive)	–
CSc1ccc(/C=C2\N=C(c3ccccc3)N(/N=C3\C(=O)Nc4ccccc43)C2=O)cc1	> 100 µM (inactive)	> 100 µM (inactive)	92.5 µM (inactive)	> 100 µM (inactive)	> 100 µM (inactive)	> 100 µM (inactive)	> 100 µM (inactive)	29.7 µM (inactive)	–	> 100 µM (inactive)	> 100 µM (inactive)	> 100 µM (inactive)	> 100 µM (inactive)	> 100 µM (inactive)	> 100 µM (inactive)	> 100 µM (inactive)	> 100 µM (inactive)	> 100 µM (inactive)	> 100 µM (inactive)	> 100 µM (inactive)
O=C1C(=O)C(CCCO)(CCCO)CCCCCCCCC1(CCCO)CCCO	45.8 µM (inactive)	> 100 µM (inactive)	–	75.7 µM (inactive)	57.7 µM (inactive)	41.3 µM (inactive)	86.9 µM (inactive)	–	> 100 µM (inactive)	41.9 µM (inactive)	41.1 µM (inactive)	87.7 µM (inactive)	73.8 µM (inactive)	> 100 µM (inactive)	> 100 µM (inactive)	48.4 µM (inactive)	> 100 µM (inactive)	> 100 µM (inactive)	61.5 µM (inactive)	88.1 µM (inactive)
Cc1cc(N(C)C)ccc1/N=N/c1ccc2ncccc2c1	> 100 µM (inactive)	> 100 µM (inactive)	40 µM (inactive)	> 100 µM (inactive)	30.6 µM (inactive)	86.3 µM (inactive)	> 100 µM (inactive)	16.8 µM (inactive)	31.8 µM (inactive)	–	17.2 µM (inactive)	16.9 µM (inactive)	98.4 µM (inactive)	> 100 µM (inactive)	27.4 µM (inactive)	13.3 µM (inactive)	–	> 100 µM (inactive)	28.9 µM (inactive)	> 100 µM (inactive)
CCCCCc1c(CCCC)c(O)nc2nc(NC(=O)CCCC)ccc12	> 100 µM (inactive)	> 100 µM (inactive)	> 100 µM (inactive)	–	–	> 100 µM (inactive)	> 100 µM (inactive)	> 100 µM (inactive)	> 100 µM (inactive)	> 100 µM (inactive)	> 100 µM (inactive)	> 100 µM (inactive)	> 100 µM (inactive)	> 100 µM (inactive)	> 100 µM (inactive)	> 100 µM (inactive)	> 100 µM (inactive)	> 100 µM (inactive)	> 100 µM (inactive)	–
CCOP(=O)(OCC)C(Cc1ccc(Cl)cc1)NS(=O)(=O)c1ccc(C)cc1 (stereo not drawn)	> 100 µM (inactive)	> 100 µM (inactive)	> 100 µM (inactive)	> 100 µM (inactive)	> 100 µM (inactive)	> 100 µM (inactive)	> 100 µM (inactive)	> 100 µM (inactive)	–	> 100 µM (inactive)	> 100 µM (inactive)	> 100 µM (inactive)	35.5 µM (inactive)	> 100 µM (inactive)	> 100 µM (inactive)	67.9 µM (inactive)	> 100 µM (inactive)	> 100 µM (inactive)	> 100 µM (inactive)	> 100 µM (inactive)
O=S(=O)(O)c1cc(O)c2c(O)c(/N=N/c3cccc4ccccc34)c(S(=O)(=O)O)cc2c1	> 100 µM (inactive)	> 100 µM (inactive)	–	> 100 µM (inactive)	> 100 µM (inactive)	> 100 µM (inactive)	> 100 µM (inactive)	> 100 µM (inactive)	> 100 µM (inactive)	> 100 µM (inactive)	> 100 µM (inactive)	> 100 µM (inactive)	> 100 µM (inactive)	> 100 µM (inactive)	–	> 100 µM (inactive)	> 100 µM (inactive)	> 100 µM (inactive)	> 100 µM (inactive)	> 100 µM (inactive)
